Test results taken from patent US8399465B2, “Compounds with two fused bicyclic heteroaryl moieties as modulators of leukotriene A4 hydrolase” (Janssen Pharmaceutica NV, priority 2009, dated 2013).
Structures can show the parent of a compound that is named as a salt. Where two headings read alike, the source gives them in different places.

Experiments:
[1] = test system: LTB4 production in murine blood (LTA4H); assay: LTB4 production by calcium ionophore-stimulated murine blood for LTA4H inhibitor activity; format: cell-based, CD-1 mice; conditions: Mus musculus; murine blood diluted 1 in 15, A23187 stimulated; single determination or average; mark after value = form tested: ′ free base, ″ hydrochloride, ^ formate; read-out: IC50
Outline: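 Heparinized blood from CD-1 mice was preincubated with compound for 15 min at 37° C, then stimulated with calcium ionophore A23187 (final 7 μg/mL) for 30 min. Centrifugation stopped the reaction, and LTB4 in the supernatant was measured by enzyme immunoassay. Values are single determinations or means of two or more.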

[2] = biological target: T1, recombinant human LTA4 hydrolase (rhLTA4H) (Homo sapiens, UniProt P09960); assay: Recombinant human LTA4 hydrolase assay for LTA4 hydrolase inhibitor activity; format: biochemical
T1 construct: made in house; host or cells: Spodoptera frugiperda (Sf-9) cells, baculovirus (pFastBac1)
T1 sequence (P09960 1-611): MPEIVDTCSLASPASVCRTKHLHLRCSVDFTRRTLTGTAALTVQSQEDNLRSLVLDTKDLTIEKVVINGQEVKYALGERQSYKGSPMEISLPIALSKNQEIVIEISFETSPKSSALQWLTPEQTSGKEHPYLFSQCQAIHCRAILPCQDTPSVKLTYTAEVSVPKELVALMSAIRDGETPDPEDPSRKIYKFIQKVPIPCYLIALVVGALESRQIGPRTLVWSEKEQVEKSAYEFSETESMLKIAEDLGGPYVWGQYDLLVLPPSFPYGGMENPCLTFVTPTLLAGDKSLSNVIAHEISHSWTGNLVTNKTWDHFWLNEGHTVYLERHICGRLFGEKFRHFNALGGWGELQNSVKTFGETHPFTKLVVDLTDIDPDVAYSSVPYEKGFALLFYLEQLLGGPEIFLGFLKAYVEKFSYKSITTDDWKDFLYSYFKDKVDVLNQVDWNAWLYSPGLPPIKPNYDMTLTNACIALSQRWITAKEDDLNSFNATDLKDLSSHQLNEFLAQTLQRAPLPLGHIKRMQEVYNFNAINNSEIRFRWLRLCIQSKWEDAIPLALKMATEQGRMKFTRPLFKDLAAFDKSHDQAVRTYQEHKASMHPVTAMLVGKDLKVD
Outline: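 Baculovirus/Sf-9-expressed human LTA4H (10 ng) was preincubated 10 min at rt with compound in assay buffer (10% DMSO in compound dilution), then reacted 30 min at rt with LTA4 free acid made from its methyl ester. LTB4 produced was measured by ELISA after dilution; IC50 from non-linear regression, single or averaged determinations.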

[3] = test system: arachidonic acid-induced neutrophil influx in murine ear tissue; assay: Murine arachidonic acid-induced inflammation model: neutrophil influx (myeloperoxidase) in ear; format: in vivo, Balb/c mice; conditions: Mus musculus, read-out: % Inh. MPO
Procedure: (§1) Assay 3: Murine Arachidonic Acid-Induced Inflammation Model
(§2) LTA4H inhibitor compounds of the present invention were dissolved in 20% cyclodextran/H2O at a concentration of 3 mg/mL. The solutions were administered by oral gavage to female Balb/c mice weighing approximately 20 grams each (0.2 mL per mouse, 30 mg of LTA4H inhibitor compound per kg). Sixty minutes after being administered an LTA4 inhibitor, each mouse received topical application of 20 μL of arachidonic acid (100 mg/mL in acetone) to the left ear and 20 μL of acetone only to the right ear. After 3 h, the mice were sacrificed, blood was withdrawn in heparinized syringes, and 8 mm ear biopsies were taken. Ear biopsies were weighed to determine edema and then frozen at −80° C. until needed for determination of neutrophil influx.
Neutrophil influx was quantified by measuring the activity of myeloperoxidase (MPO), a neutrophil-specific enzyme. […] Debris was removed by centrifugation at 14000×g for 10 min. […] The microtiter plate contents were held at room temperature until the sample with the highest concentration of MPO reached an absorbance value of 0.4 at 650 nm. The reaction was stopped by addition of 50 μL 1 M H2SO4 to each sample well, and the myeloperoxidase activity in each sample was determined from the absorbance at […]. The background value from the right ear, treated only with acetone, was subtracted from that for the left ear, treated with arachidonic acid in acetone, for each animal. The percent inhibition of neutrophil influx (% Inh. MPO) by compounds of the invention was determined by comparison to animals treated identically, except that the solution administered by oral gavage was devoid of inhibitor compound. All compounds were assayed in their free base form.

[4] = test system: ex vivo calcium ionophore-stimulated LTB4 production in whole blood; assay: Murine arachidonic acid-induced inflammation model: ex vivo stimulated LTB4 production in blood; parameters: species or system Balb/c mice; conditions: Mus musculus; 30 mg/kg oral gavage; blood diluted 1:1, A23187 stimulated ex vivo; percent inhibition of LTB4 production; read-out: % Inh. LTB4
Procedure: as §1, §2
The microtiter plate contents were incubated for 30 min at 37° C. in a humidified incubator. The reaction was terminated by centrifugation (833×g, 10 min at 4° C.). Supernatants were analyzed for LTB4 by a commercially available enzyme-linked immunoassay (Cayman Chemical Co.) in accordance with the manufacturer's instructions. The percent inhibition of ex vivo stimulated LTB4 production (% Inh. LTB4) was determined by comparison to animals treated identically except that the solution administered by oral gavage was devoid of inhibitor compound.

[5] = rhLTA4H, LTB4 by immunoassay, single determination or average of two or more, mark after value = form tested: ′ free base, ″ hydrochloride, ^ formate, read-out: IC50
[6] = 30 mg/kg oral gavage, 60 min before topical arachidonic acid, ear biopsy after 3 h, percent inhibition of neutrophil influx

| IC50 [1] | IC50 [2, 5] | Compound | inhibition at 30 mg/kg [3, 6] | inhibition at 30 mg/kg [4] | inhibition at 30 mg/kg ([3]; Neutrophil) | IC50 [2] |
| --- | --- | --- | --- | --- | --- | --- |
| 110 nM | 13 nM | CN(Cc1ccncc1)Cc1coc2cc(Oc3nc4ncccc4s3)ccc12 [Example 177, Methyl-pyridin-4-ylmethyl-[6-(thiazolo[4,5-b]pyridin-2-yloxy)-benzofuran-3-ylmethyl]-amine] | 12% | 70% | – | – |
| 39 nM | 9 nM | CC(=O)N1CCCN(Cc2coc3cc(Oc4nc5ncccc5s4)ccc23)CC1 [Example 182, 1-{4-[6-(Thiazolo[4,5-b]pyridin-2-yloxy)-benzofuran-3-ylmethyl]-[1,4]diazepan-1-yl}-ethanone] | 67% | 85% | – | – |
| 57 nM | 6 nM | CS(=O)(=O)C1CCN(Cc2coc3cc(Oc4nc5ncccc5s4)ccc23)CC1 [Example 183, 2-[3-(4-Methanesulfonyl-piperidin-1-ylmethyl)-benzofuran-6-yloxy]-thiazolo[4,5-b]pyridine] | 85% | 83% | – | – |
| 49 nM | 8 nM | COCCN(C)Cc1coc2cc(Oc3nc4ncccc4s3)ccc12 [Example 184, (2-Methoxy-ethyl)-methyl-[6-(thiazolo[4,5-b]pyridin-2-yloxy)-benzofuran-3-ylmethyl]-amine] | 53% | 82% | – | – |
| 12 nM | 4 nM | c1cnc2nc(Oc3ccc4c(CN5CCCC5)coc4c3)sc2c1 [Example 185, 2-(3-Pyrrolidin-1-ylmethyl-benzofuran-6-yloxy)-thiazolo[4,5-b]pyridine] | 64% | 75% | – | – |
| 6 nM | 1 nM | COC[C@@H]1CCCN1Cc1coc2cc(Oc3nc4ncccc4s3)ccc12 [Example 186, (2S)-2-[3-(2-Methoxymethyl-pyrrolidin-1-ylmethyl)-benzofuran-6-yloxy]-thiazolo[4,5-b]pyridine] | 79% | 86% | – | – |
| 21 nM | 1 nM | CC(=O)N[C@H]1C[C@@H]2C[C@H]1CN2Cc1coc2cc(Oc3nc4ncccc4s3)ccc12 [Example 187, (1S,4S,5S)—N-{2-[6-(Thiazolo[4,5-b]pyridin-2-yloxy)-benzofuran-3-ylmethyl]-2-aza-bicyclo[2.2.1]hept-5-yl}-acetamide] | 88% | 83% | – | – |
| 63 nM | 26 nM | CC(=O)N[C@H]1C[C@@H]2C[C@H]1CN2Cc1cc2cc(Oc3nc4ncccc4s3)ccc2o1 [Example 188, (1S,4S,5S)—N-{2-[5-(Thiazolo[4,5-b]pyridin-2-yloxy)-benzofuran-2-ylmethyl]-2-aza-bicyclo[2.2.1]hept-5-yl}-acetamide] | 78% | 73% | – | – |
| 70 nM | 3 nM | CC(=O)N[C@H]1C[C@@H]2C[C@H]1CN2Cc1cc2ccc(Oc3nc4ncccc4s3)cc2o1 [Example 189, (1S,4S,5S)—N-{2-[6-(Thiazolo[4,5-b]pyridin-2-yloxy)-benzofuran-2-ylmethyl]-2-aza-bicyclo[2.2.1]hept-5-yl}-acetamide] | 84% | 76% | – | – |
| 13 nM | 11 nM | CC(=O)N1CC2CN(Cc3coc4cc(Oc5nc6ncccc6s5)ccc34)CC2C1 (stereo not drawn) [Example 211, meso-1-{5-[6-(Thiazolo[4,5-b]pyridin-2-yloxy)-benzofuran-3-ylmethyl]-hexahydro-pyrrolo[3,4-c]pyrrol-2-yl}-ethanone] | 86% | 92% | – | – |
| 25 nM | 5 nM | NC(=O)C1CCN(Cc2coc3cc(Oc4nc5ncccc5s4)ccc23)CC1 [Example 213, 1-[6-(Thiazolo[4,5-b]pyridin-2-yloxy)-benzofuran-3-ylmethyl]-piperidine-4-carboxylic acid amide] | 92% | 80% | – | – |
| 19 nM | 2 nM | CNC(=O)C1CCN(Cc2coc3cc(Oc4nc5ncccc5s4)ccc23)CC1 [Example 214, 1-[6-(Thiazolo[4,5-b]pyridin-2-yloxy)-benzofuran-3-ylmethyl]-piperidine-4-carboxylic acid methylamide] | 88% | 90% | – | – |
| 21 nM | 3 nM | O=C1CCCN1C1CCN(Cc2coc3cc(Oc4nc5ncccc5s4)ccc23)CC1 [Example 215, 1-{1-[6-(Thiazolo[4,5-b]pyridin-2-yloxy)-benzofuran-3-ylmethyl]-piperidin-4-yl}-pyrrolidin-2-one] | 78% | 88% | – | – |

| Compound | IC50 [1] | IC50 [2, 5] | inhibition at 30 mg/kg [3, 6] | inhibition at 30 mg/kg [4] | inhibition at 30 mg/kg ([3]; Neutrophil) | IC50 [2] |
| --- | --- | --- | --- | --- | --- | --- |
| CC(=O)N1CCN(Cc2coc3cc(Oc4nc5ncccc5s4)ccc23)CC1 [Example 196, 1-{4-[6-(Thiazolo[4,5-b]pyridin-2-yloxy)-benzofuran-3-ylmethyl]-piperazin-1-yl}-ethanone formate] | 38 nM | 11 nM | – | 91% | 93% | – |
| CC(=O)NC1CCN(Cc2coc3cc(Oc4nc5ncccc5s4)ccc23)CC1 [Example 197, N-{1-[6-(Thiazolo[4,5-b]pyridin-2-yloxy)-benzofuran-3-ylmethyl]-piperidin-4-yl}-acetamide formate] | 15 nM | 4 nM | – | 91% | 92% | – |
| CCN(CC)Cc1cc2ccc(Oc3nc4ncccc4s3)cc2o1 [Example 198, Diethyl-[6-(thiazolo[4,5-b]pyridin-2-yloxy)-benzofuran-2-ylmethyl]-amine formate] | 110 nM | 11 nM | – | 80% | 74% | – |
| CC(=O)N[C@@H]1C[C@H]2CC[C@@H](C1)N2Cc1coc2cc(Oc3nc4ncccc4s3)ccc12 [Example 208, meso-exo-N-{8-[6-(Thiazolo[4,5-b]pyridin-2-yloxy)-benzofuran-3-ylmethyl]-8-aza-bicyclo[3.2.1]oct-3-yl}-acetamide] | 24 nM | – | 92% | 93% | – | 1 nM |
| NC(=O)N1C[C@@H]2C[C@H]1CN2Cc1coc2cc(Oc3nc4ncccc4s3)ccc12 [Example 209, (1S,4S)-5-[6-(Thiazolo[4,5-b]pyridin-2-yloxy)-benzofuran-3-ylmethyl]-2,5-diaza-bicyclo[2.2.1]heptane-2-carboxylic acid amide formate] | 54 nM | 53 nM | – | 68% | 82% | – |
